From ChEMBL document CHEMBL1127917, “The phosphonate analog of 5-methylthioribose 1--phosphate” (Bioorg Med Chem Lett, 1994)
The source made the active and inactive calls. No cut-off for these calls is given here.

Tested on: Klebsiella pneumoniae
Assay: Tested for inhibition of oxygen uptake by the compound included in an extract of Klebsiella pneumoniae along with substrate 1 at the dose of 0.8 mM; No inhibition
Assay type: functional, organism-based

Compound: CSCC1OC(CP(=O)(O)O)[C@H](O)[C@@H]1O (stereo partly specified)
- Activity: inactive
